Test results from patent publication US20150275254A1, “ENZYME LOADING, CELLULOSE HYDROLYSIS, AND INHIBITION OF CELLOBIOHYDROLASES USING LIQUID HOT WATER PRETREATMENT” (PURDUE RESEARCH FOUNDATION, priority 2014, published 2015).

What was measured:
[1] = system: Cellic Ctec2; assay: Enzymatic hydrolysis of LHW pretreated hardwood (severity log Ro=12.51) at different hydrolysis conditions (FIG. 6); type: biochemical, Trichoderma reesei; conditions: 200 mM NaCl at pH 4.8; 5 FPU (8 mg) Ctec2/g glucan, 72 hrs
Experimental: In this work, the lignocellulosic substrate was enzymatically hydrolyzed in order to study how the non-productive adsorption affected the enzymatic hydrolysis efficiency. The glucose yield of LHW pretreated hardwood containing 57.9% glucan and 40.3% lignin was measured for a low enzyme loading amount of 5 FPU (8 mg) Ctec2/g glucan at given conditions (FIG. 6). […] This might be due to the decreased cellulase activity at pH 5.5 as shown in microcrystalline cellulose (Avicel) hydrolysis. The overall decrease in T. reesei cellulase cocktail (Ctec2) adsorption onto lignins at elevated pHs was in agreement with the results by Lou et al. (2013). The reduced nonproductive adsorption led to the enhanced glucose yield more than twofold when the dilute acid or sulfite pretreated softwood was hydrolyzed with higher amount (10 FPU/g glucan) of cellulase (Lou et al., 2013).

[2] = molecular target: β-glucosidase from T. reesei; conditions: cited from earlier work
[3] = molecular target: T1, β-glucosidase from A. niger (Aspergillus niger, UniProt A2RAL4); conditions: cited from earlier work
T1 sequence (A2RAL4 20-860): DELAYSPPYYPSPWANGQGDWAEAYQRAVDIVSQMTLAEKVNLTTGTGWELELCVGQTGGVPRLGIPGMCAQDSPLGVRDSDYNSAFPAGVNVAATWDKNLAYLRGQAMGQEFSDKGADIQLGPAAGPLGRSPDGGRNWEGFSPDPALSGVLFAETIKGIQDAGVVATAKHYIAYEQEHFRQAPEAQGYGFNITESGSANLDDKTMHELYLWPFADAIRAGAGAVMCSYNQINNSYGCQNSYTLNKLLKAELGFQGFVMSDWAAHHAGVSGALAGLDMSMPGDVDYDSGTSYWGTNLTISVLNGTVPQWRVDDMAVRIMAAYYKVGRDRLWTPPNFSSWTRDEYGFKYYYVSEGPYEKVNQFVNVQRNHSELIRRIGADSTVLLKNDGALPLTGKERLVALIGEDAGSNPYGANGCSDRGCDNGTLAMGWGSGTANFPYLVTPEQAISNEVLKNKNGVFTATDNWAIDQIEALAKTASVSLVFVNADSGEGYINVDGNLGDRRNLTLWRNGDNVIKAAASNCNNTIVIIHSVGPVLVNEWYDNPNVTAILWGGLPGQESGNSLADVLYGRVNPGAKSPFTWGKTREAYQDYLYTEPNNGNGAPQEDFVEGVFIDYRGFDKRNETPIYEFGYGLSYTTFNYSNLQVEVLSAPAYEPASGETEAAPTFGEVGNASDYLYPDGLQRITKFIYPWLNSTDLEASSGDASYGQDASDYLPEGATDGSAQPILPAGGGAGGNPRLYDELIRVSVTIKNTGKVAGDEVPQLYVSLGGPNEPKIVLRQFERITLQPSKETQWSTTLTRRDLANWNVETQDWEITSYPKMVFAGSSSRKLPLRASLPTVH

[4] = adapted from literature; cited from earlier work

Molecule: [Cl-].[Na+] [NaCl]
- effect on glucose yield [1]: did not affect the glucose yield

Molecule: O=C(O)c1cc(O)c(O)c(O)c1 [gallic acid]
- k, deactivation rate constant [2]: 0.046 h⁻¹
- k, deactivation rate constant [3]: 0.006 h⁻¹

Molecule: O=C(OC[C@H]1O[C@@H](OC(=O)c2cc(O)c(O)c(OC(=O)c3cc(O)c(O)c(O)c3)c2)[C@H](OC(=O)c2cc(O)c(O)c(OC(=O)c3cc(O)c(O)c(O)c3)c2)[C@@H](OC(=O)c2cc(O)c(O)c(OC(=O)c3cc(O)c(O)c(O)c3)c2)[C@@H]1OC(=O)c1cc(O)c(O)c(OC(=O)c2cc(O)c(O)c(O)c2)c1)c1cc(O)c(O)c(OC(=O)c2cc(O)c(O)c(O)c2)c1 [tannic acid]
- k, deactivation rate constant [2]: 0.068 h⁻¹
- k, deactivation rate constant [3]: 0.045 h⁻¹

B1: CBHI: T. reesei enzyme, gene cel7a, GH7 (protein, UniProt P62694 18-513, looked up)
Exoglucanase 1: QSACTLQSETHPPLTWQKCSSGGTCTQQTGSVVIDANWRWTHATNSSTNCYDGNTWSSTLCPDNETCAKNCCLDGAAYASTYGVTTSGNSLSIGFVTQSAQKNVGARLYLMASDTTYQEFTLLGNEFSFDVDVSQLPCGLNGALYFVSMDADGGVSKYPTNTAGAKYGTGYCDSQCPRDLKFINGQANVEGWEPSSNNANTGIGGHGSCCSEMDIWEANSISEALTPHPCTTVGQEICEGDGCGGTYSDNRYGGTCDPDGCDWNPYRLGNTSFYGPGSSFTLDTTKKLTVVTQFETSGAINRYYVQNGVTFQQPNAELGSYSGNELNDDYCTAEEAEFGGSSFSDKGGLTQFKKATSGGMVLVMSLWDDYYANMLWLDSTYPTNETSSTPGAVRGSCSTSSGVPAQVESQSPNAKVTFSNIKFGPIGSTGNPSGGNPPGGNRGTTTTRRPATTTGSSPGPTQSHYGQCGGIGYSGPTVCASGTTCQVLNPYYSQCL
- Experimental pI [4]: (3.6-3.9)

B2: CBHII: T. reesei enzyme, gene cel6a, GH6 (protein, UniProt P07987 25-471, looked up)
Exoglucanase 2: QACSSVWGQCGGQNWSGPTCCASGSTCVYSNDYYSQCLPGAASSSSSTRAASTTSRVSPTTSRSSSATPPPGSTTTRVPPVGSGTATYSGNPFVGVTPWANAYYASEVSSLAIPSLTGAMATAAAAVAKVPSFMWLDTLDKTPLMEQTLADIRTANKNGGNYAGQFVVYDLPDRDCAALASNGEYSIADGGVAKYKNYIDTIRQIVVEYSDIRTLLVIEPDSLANLVTNLGTPKCANAQSAYLECINYAVTQLNLPNVAMYLDAGHAGWLGWPANQDPAAQLFANVYKNASSPRALRGLATNVANYNGWNITSPPSYTQGNAVYNEKLYIHAIGPLLANHGWSNAFFITDQGRSGKQPTGQQQWGDWCNVIGTGFGIRPSANTGDSLLDSFVWVKPGGECDGTSDSSAPRFDSHCALPDALQPAPQAGAWFQAYFVQLLTNANPSFL
- Experimental pI [4]: (5.2-5.9)

B3: EGI: T. reesei enzyme, gene cel7b, GH7 (protein, UniProt P07981 23-459, looked up)
Endoglucanase EG-1: QQPGTSTPEVHPKLTTYKCTKSGGCVAQDTSVVLDWNYRWMHDANYNSCTVNGGVNTTLCPDEATCGKNCFIEGVDYAASGVTTSGSSLTMNQYMPSSSGGYSSVSPRLYLLDSDGEYVMLKLNGQELSFDVDLSALPCGENGSLYLSQMDENGGANQYNTAGANYGSGYCDAQCPVQTWRNGTLNTSHQGFCCNEMDILEGNSRANALTPHSCTATACDSAGCGFNPYGSGYKSYYGPGDTVDTSKTFTIITQFNTDNGSPSGNLVSITRKYQQNGVDIPSAQPGGDTISSCPSASAYGGLATMGKALSSGMVLVFSIWNDNSQYMNWLDSGNAGPCSSTEGNPSNILANNPNTHVVFSNIRWGDIGSTTNSTAPPPPPASSTTFSTTRRSSTTSSSPSCTQTHWGQCGGIGYSGCKTCTSGTTCQYSNDYYSQCL
- Experimental pI [4]: (3.9-4.5)

B4: EGII: T. reesei enzyme, gene cel5a, GH5 (protein, UniProt P07982 22-418, looked up)
Endoglucanase EG-II: QQTVWGQCGGIGWSGPTNCAPGSACSTLNPYYAQCIPGATTITTSTRPPSGPTTTTRATSTSSSTPPTSSGVRFAGVNIAGFDFGCTTDGTCVTSKVYPPLKNFTGSNNYPDGIGQMQHFVNEDGMTIFRLPVGWQYLVNNNLGGNLDSTSISKYDQLVQGCLSLGAYCIVDIHNYARWNGGIIGQGGPTNAQFTSLWSQLASKYASQSRVWFGIMNEPHDVNINTWAATVQEVVTAIRNAGATSQFISLPGNDWQSAGAFISDGSAAALSQVTNPDGSTTNLIFDVHKYLDSDNSGTHAECTTNNIDGAFSPLATWLRQNNRQAILTETGGGNVQSCIQDMCQQIQYLNQNSDVYLGYVGWGAGSFDSTYVLTETPTSSGNSWTDTSLVSSCLARK
- Experimental pI [4]: (4.2-5.5)
